The target in test [1] is T1, MDM2 (Homo sapiens, UniProt Q00987).
T1 construct: made in house
Put plainly: Inhibition test of MDM2-P53 (GST-MDM2, Biotin-P53, Anti-GST-Tb, SA-XL665). Type of test: binding. In a few lines: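 Compounds, serially diluted 5-fold (twelve concentrations), were shaken for 90 min at 25° C with a mix of GST-MDM2 (4 nM final), Biotin-P53, anti-GST-Tb and SA-XL665. Buffer: 1×PBS, 0.1% BSA, 5 mM DTT, 1 mM AEBSF; signal read on a microplate reader.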

The subject of test [2] is human osteosarcoma cell line SJSA-1. The test can be described thus: Inhibition of proliferation of human osteosarcoma cell line SJSA-1 (DAPI staining, In Cell Analyzer). Conditions: Homo sapiens, SJSA-1, 72 h, read-out: IC50 (nM), inhibitory activity on proliferation of human osteosarcoma cell line SJSA-1, SJSA-1, incubated 72 h.

The structures appear in SMILES notation.

T1 sequence (Q00987 whole entry): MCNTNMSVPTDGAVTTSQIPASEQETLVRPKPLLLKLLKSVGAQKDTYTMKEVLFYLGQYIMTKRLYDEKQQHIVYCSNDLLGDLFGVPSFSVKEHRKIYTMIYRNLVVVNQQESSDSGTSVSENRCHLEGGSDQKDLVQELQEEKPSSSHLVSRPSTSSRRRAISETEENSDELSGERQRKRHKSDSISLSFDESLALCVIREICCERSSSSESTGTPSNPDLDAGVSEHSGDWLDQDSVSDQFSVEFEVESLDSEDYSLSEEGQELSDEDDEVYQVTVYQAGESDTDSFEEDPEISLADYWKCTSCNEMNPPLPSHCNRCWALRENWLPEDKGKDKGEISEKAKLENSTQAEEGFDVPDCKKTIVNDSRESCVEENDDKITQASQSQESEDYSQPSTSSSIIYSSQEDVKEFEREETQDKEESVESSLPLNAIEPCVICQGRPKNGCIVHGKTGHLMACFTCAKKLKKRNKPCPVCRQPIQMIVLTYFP

On to `COc1cc(N)ccc1-c1nc2c(n1C(C)C)[C@@]1(C(=O)Nc3cc(Cl)ccc31)N(c1cc(Cl)ccc1F)C2=O` [Example S-66, (S)-2′-(4-amino-2-methoxyphenyl)-6-chloro-5′-(5-chloro-2-fluorophenyl)-3′-isopropyl-3′H-spiro[dihydroindole-3,4′-pyrrolo[3,4-d]imidazole]-2,6′(5′H)-dione], for which the IC50 in test [1] was 1.5 nM; in test [2], 39.6 nM.

In the case of `COc1cc(N)ccc1-c1nc2c(n1C(C)C)[C@@]1(C(=O)Nc3cc(Cl)ccc31)N(c1cc(F)cc(Cl)c1)C2=O` [Example S-67, (S)-2′-(4-amino-2-methoxyphenyl)-6-chloro-5′-(3-chloro-5-fluorophenyl)-3′-isopropyl-3′H-spiro[dihydroindole-3,4′-pyrrolo[3,4-d]imidazole]-2,6′(5′H)-dione], the values for the IC50 in test [1] and in test [2] were 1.22 nM and 20.8 nM, respectively.

`COc1cc(C(=O)N(C)C)ccc1-c1nc2c(n1C(C)C)[C@@]1(C(=O)Nc3cc(Cl)ccc31)N(c1cc(Cl)ccc1C)C2=O` [Example S-68, (S)-4-(6-chloro-5′-(5-chloro-2-methylphenyl)-3′-isopropyl-2,6′-dioxo-5′,6′-dihydro-3′H-spiro[dihydroindole-3,4′-pyrrolo[3,4-d]imidazole]-2′-yl)-3-methoxy-N,N-dimethylbenzamide]: the IC50 in test [1] amounted to 2.32 nM; in test [2], 1700 nM.

`COc1ccc(CC(=O)N(C)C)cc1-c1nc2c(n1C(C)C)[C@@]1(C(=O)Nc3cc(Cl)ccc31)N(c1cc(Cl)ccc1C)C2=O` [Example S-70, (S)-2-(3-(6-chloro-5′-(5-chloro-2-methylphenyl)-3′-isopropyl-2,6′-dioxo-5′,6′-dihydro-3′H-spiro[dihydroindole-3,4′-pyrrolo[3,4-d]imidazole]-2′-yl)-4-methoxyphenyl)-N,N-dimethylacetamide]: the figures for the IC50 in test [1] and in test [2] were 0.94 nM and 73.6 nM, respectively.

Consider `COc1ccc(N2C(=O)c3nc(-c4ccc(N)cc4OC)n(C(C)C)c3[C@@]23C(=O)Nc2cc(Cl)ccc23)cc1Cl` [Example S-71, (S)-2′-(4-amino-2-methoxyphenyl)-6-chloro-5′-(3-chloro-4-methoxyphenyl)-3′-isopropyl-3′H-spiro[dihydroindole-3,4′-pyrrolo[3,4-d]imidazole]-2,6′(5′H)-dione], for which the IC50 in test [1] was 2.96 nM; in test [2], 292 nM.

Regarding `COc1cc(N)ccc1-c1nc2c(n1C(C)C)[C@@]1(C(=O)Nc3cc(Cl)ccc31)N(c1ccc(F)c(Cl)c1)C2=O` [Example S-73, (S)-2′-(4-amino-2-methoxyphenyl)-6-chloro-5′-(3-chloro-4-fluorophenyl)-3′-isopropyl-3′H-spiro[dihydroindole-3,4′-pyrrolo[3,4-d]imidazole]-2,6′(5′H)-dione], the IC50 in test [1] worked out at 1.1 nM; in test [2] it was 251 nM.

As to `COc1cc(N)c(C)cc1-c1nc2c(n1C(C)C)[C@@]1(C(=O)Nc3cc(Cl)ccc31)N(c1cc(Cl)ccc1C)C2=O` [Example S-74, (S)-2′-(4-amino-2-methoxy-5-methylphenyl)-6-chloro-5′-(5-chloro-2-methylphenyl)-3′-isopropyl-3′H-spiro[dihydroindole-3,4′-pyrrolo[3,4-d]imidazole]-2,6′(5′H)-dione], the IC50 in test [1] turned out to be 0.98 nM; in test [2] it was 7.85 nM.

For the molecule `COc1cc(N)c(F)cc1-c1nc2c(n1C(C)C)[C@@]1(C(=O)Nc3cc(Cl)ccc31)N(c1cc(Cl)ccc1C)C2=O` [Example S-75, (S)-2′-(4-amino-5-fluoro-2-methoxyphenyl)-6-chloro-5′-(5-chloro-2-methylphenyl)-3′-isopropyl-3′H-spiro[dihydroindole-3,4′-pyrrolo[3,4-d]imidazole]-2,6′(5′H)-dione], the IC50 worked out at 0.97 nM in test [1] and 9.84 nM in test [2].

Regarding `COc1c(F)cccc1-c1nc2c(n1C(C)C)[C@@]1(C(=O)Nc3cc(Cl)ccc31)N(c1cc(Cl)ccc1C)C2=O` [Example S-76, (S)-6-chloro-5′-(5-chloro-2-methylphenyl)-2′-(3-fluoro-2-methoxyphenyl)-3′-isopropyl-3′H-spiro[dihydroindole-3,4′-pyrrolo[3,4-d]imidazole]-2,6′(5′H)-dione], the IC50 in test [1] is 4.23 nM; in test [2] it was 309 nM.

For `COc1cc(C(N)=O)ccc1-c1nc2c(n1C(C)C)[C@@]1(C(=O)Nc3cc(Cl)ccc31)N(c1cc(Cl)ccc1C)C2=O` [Example S-77, (S)-4-(6-chloro-5′-(5-chloro-2-methylphenyl)-3′-isopropyl-2,6′-dioxo-5′,6′-dihydro-3′H-spiro[dihydroindole-3,4′-pyrrolo[3,4-d]imidazole]-2′-yl)-3-methoxybenzamide], the IC50 in test [1] was found to be 1.86 nM; in test [2] it was 535 nM.

With `COc1cc(N(C)C)c(F)cc1-c1nc2c(n1C(C)C)[C@@]1(C(=O)Nc3cc(Cl)ccc31)N(c1cc(Cl)ccc1C)C2=O` [Example S-78], the IC50 in test [1] was 1.42 nM; in test [2], 7.88 nM.

For the molecule `COc1cccc(OC)c1-c1nc2c(n1C(C)C)[C@@]1(C(=O)Nc3cc(Cl)ccc31)N(c1cc(Cl)ccc1C)C2=O` [Example S-79, (S)-6-chloro-5′-(5-chloro-2-methylphenyl)-2′-(2,6-dimethoxyphenyl)-3′-isopropyl-3′H-spiro[dihydroindole-3,4′-pyrrolo[3,4-d]imidazole]-2,6′(5′H)-dione], the IC50 in test [1] was found to be 1.89 nM; in test [2], 72.4 nM.

With `COc1ccc(-c2nc3c(n2C(C)C)[C@@]2(C(=O)Nc4cc(Cl)ccc42)N(c2cc(Cl)ccc2F)C3=O)c(OC)c1` [Example S-80, (S)-6-chloro-5′-(5-chloro-2-fluorophenyl)-2′-(2,4-dimethoxyphenyl)-3′-isopropyl-3′H-spiro[dihydroindole-3,4′-pyrrolo[3,4-d]imidazole]-2,6′(5′H)-dione], the IC50 amounted to 2.56 nM in test [1] and 16.9 nM in test [2].

Turning to `COc1cc(N(C)C)ccc1-c1nc2c(n1C(C)C)[C@@]1(C(=O)Nc3cc(Cl)ccc31)N(c1cc(Cl)ccc1F)C2=O` [Example S-81, (S)-6-chloro-5′-(5-chloro-2-fluorophenyl)-2′-(4-(dimethylamino)-2-methoxyphenyl)-3′-isopropyl-3′H-spiro[dihydroindole-3,4′-pyrrolo[3,4-d]imidazole]-2,6′(5′H)-dione], the IC50 in test [1] worked out at 1.23 nM; in test [2] it was 82.8 nM.

Take `COc1nc(N(C)C)ncc1-c1nc2c(n1C(C)C)[C@@]1(C(=O)Nc3cc(Cl)ccc31)N(c1cc(Cl)ccc1C)C2=O` [Example S-82, (S)-6-chloro-5′-(5-chloro-2-methylphenyl)-2′-(2-(dimethylamino)-4-methoxypyrimidin-5-yl)-3′-isopropyl-3′H-spiro[dihydroindole-3,4′-pyrrolo[3,4-d]imidazole]-2,6′(5′H)-dione]: the figures for the IC50 in test [1] and in test [2] were 1.16 nM and 7.43 nM, respectively.

Turning to `COc1cc(OC)c(-c2nc3c(n2C(C)C)[C@@]2(C(=O)Nc4cc(Cl)ccc42)N(c2cc(Cl)ccc2C)C3=O)cc1C` [Example S-83, (S)-6-chloro-5′-(5-chloro-2-methylphenyl)-2′-(2,4-dimethoxy-5-methylphenyl)-3′-isopropyl-3′H-spiro[dihydroindole-3,4′-pyrrolo[3,4-d]imidazole]-2,6′(5′H)-dione], the IC50 in test [1] is 2.23 nM; in test [2], 6.21 nM.
